Where “and” joins values, the source holds several entries; their conditions need not be identical. Equal values may be shown once. Toxic doses and inconclusive results are not listed.
System: BDF1 mice, L1210 leukemia sc, survival T/C
Assay: NCI In Vivo Anticancer Drug Screen. Data for tumor model L1210 Leukemia (subcutaneous) in B6D2F1 (BDF1) mice
Settings: endpoint: median survival time, higher = longer survival
Outline: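 Mice carrying transplanted tumors received test compounds, and survival or tumor size was measured. Values are the treated-group measurement (T) divided by that of the vehicle-treated control group (C).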

[1] = dose: 108.0 mg/kg/injection, schedule: Q01DX Z (sc), vehicle: methylcellulose (MC)
[2] = dose: 180.0 mg/kg/injection, schedule: Q01DX Z (sc), vehicle: methylcellulose (MC)
[3] = dose: 300.0 mg/kg/injection, schedule: Q01DX Z (sc), vehicle: methylcellulose (MC)
[4] = dose: 65.0 mg/kg/injection, schedule: Q01DX Z (sc), vehicle: saline
[5] = dose: 108.0 mg/kg/injection, schedule: Q01DX Z (sc), vehicle: saline
[6] = dose: 180.0 mg/kg/injection, schedule: Q01DX Z (sc), vehicle: saline

In the case of `COS(C)(=O)=O`, the T/C (dose: 23.0 mg/kg/injection, schedule: Q01DX Z (sc), vehicle: water) is reported as 100 % of control, the T/C (dose: 39.0 mg/kg/injection, schedule: Q01DX Z (sc), vehicle: water) is reported as 94 % of control and the T/C (dose: 65.0 mg/kg/injection, schedule: Q01DX Z (sc), vehicle: water) is reported as 100 % of control.
`CO[C@H](C(=O)[C@@H](O)[C@@H](C)O)[C@@H]1Cc2cc3cc(OC4CC(OC5CC(O)C(O)C(C)O5)C(O)C(C)O4)c(C)c(O)c3c(O)c2C(=O)[C@H]1OC1CC(OC2CC(OC3CC(C)(O)C(O)C(C)O3)C(O)C(C)O2)C(O)C(C)O1` (some centres undefined) was tested, and the T/C (dose: 0.12 mg/kg/injection, schedule: Q01DX009 (ip), vehicle: water) was 105 % of control, the T/C (dose: 0.12 mg/kg/injection, schedule: Q01DX009 (sc), vehicle: water) was 103 % of control and the T/C (dose: 0.25 mg/kg/injection, schedule: Q01DX009 (ip), vehicle: water) was 94 % of control. The T/C (dose: 0.25 mg/kg/injection, schedule: Q01DX009 (sc), vehicle: water) was 100 % of control and 103 % of control, the T/C (dose: 0.5 mg/kg/injection, schedule: Q01DX009 (sc), vehicle: water) was 95 % of control and 110 % of control and the T/C (dose: 1.0 mg/kg/injection, schedule: Q01DX009 (ip), vehicle: water) was 93 % of control. For the same molecule, the T/C (dose: 1.0 mg/kg/injection, schedule: Q01DX009 (sc), vehicle: water) was 101 % of control and the T/C (dose: 2.0 mg/kg/injection, schedule: Q01DX009 (sc), vehicle: water) was 96 % of control.
With `CC(=O)NC1=C(N2CC2)C(=O)C(NC(C)=O)=C(N2CC2)C1=O` the T/C (dose: 1.08 mg/kg/injection, schedule: Q01DX Z (sc), vehicle: saline) was 213 % of control, the T/C (dose: 1.8 mg/kg/injection, schedule: Q01DX Z (sc), vehicle: saline) was 163 % of control and the T/C (dose: 5.0 mg/kg/injection, schedule: Q01DX Z (sc), vehicle: saline) was 118 % of control. For the same molecule, the T/C (dose: 8.4 mg/kg/injection, schedule: Q01DX Z (sc), vehicle: saline) was 109 % of control.
For `CC(C)CSc1ncnc2nc[nH]c12`, the T/C (dose: 38.9 mg/kg/injection, schedule: Q01DX Z (sc), vehicle: methylcellulose (MC)) was 100 % of control, the T/C (dose: 64.8 mg/kg/injection, schedule: Q01DX Z (sc), vehicle: methylcellulose (MC)) was 100 % of control and the T/C [1] was 100 % of control.
For `S=c1nc[nH]c2c1ncn2C1CCCO1` (centres undefined), the T/C [1] was 120 % of control, the T/C [2] was 120 % of control and the T/C [3] was 100 % of control.
With `CCOC(=O)NP(=O)(N1CC1)N1CC1` the T/C (dose: 5.0 mg/kg/injection, schedule: Q01DX Z (sc), vehicle: water) was 120 % of control, the T/C (dose: 14.0 mg/kg/injection, schedule: Q01DX Z (sc), vehicle: water) was 150 % of control and the T/C (dose: 23.0 mg/kg/injection, schedule: Q02DX Z (sc), vehicle: water) was 170 % of control. The T/C (dose: 23.0 mg/kg/injection, schedule: Q## X Z (sc), vehicle: water) was 165 % of control, the T/C (dose: 39.0 mg/kg/injection, schedule: Q01DX001 (sc), vehicle: water) was 160 % of control and the T/C (dose: 39.0 mg/kg/injection, schedule: Q07DX Z (sc), vehicle: water) was 150 % of control.
`OC(CBr)C(O)C(O)C(O)CBr` (centres undefined) was tested, and the T/C (dose: 108.0 mg/kg/injection, schedule: Q01DX009 (ip), vehicle: steriod suspending solution) was 105 % of control, the T/C (dose: 108.0 mg/kg/injection, schedule: Q01DX009 (sc), vehicle: steriod suspending solution) was 100 % of control and the T/C (dose: 180.0 mg/kg/injection, schedule: Q01DX009 (ip), vehicle: steriod suspending solution) was 116 % of control. The T/C (dose: 180.0 mg/kg/injection, schedule: Q01DX009 (sc), vehicle: steriod suspending solution) was 111 % of control, the T/C (dose: 180.0 mg/kg/injection, schedule: Q04DX003 (ip), vehicle: steriod suspending solution) was 100 % of control and the T/C (dose: 180.0 mg/kg/injection, schedule: Q04DX003 (sc), vehicle: steriod suspending solution) was 105 % of control. The T/C (dose: 300.0 mg/kg/injection, schedule: Q01DX009 (ip), vehicle: steriod suspending solution) was 122 % of control, the T/C (dose: 300.0 mg/kg/injection, schedule: Q01DX009 (sc), vehicle: steriod suspending solution) was 116 % of control and the T/C (dose: 300.0 mg/kg/injection, schedule: Q04DX003 (ip), vehicle: steriod suspending solution) was 111 % of control. The T/C (dose: 300.0 mg/kg/injection, schedule: Q04DX003 (sc), vehicle: steriod suspending solution) was 111 % of control, the T/C (dose: 500.0 mg/kg/injection, schedule: Q01DX009 (sc), vehicle: steriod suspending solution) was 155 % of control and the T/C (dose: 500.0 mg/kg/injection, schedule: Q04DX003 (ip), vehicle: steriod suspending solution) was 100 % of control. The T/C (dose: 500.0 mg/kg/injection, schedule: Q04DX003 (sc), vehicle: steriod suspending solution) was 105 % of control, the T/C (dose: 833.0 mg/kg/injection, schedule: Q04DX003 (ip), vehicle: steriod suspending solution) was 122 % of control and the T/C (dose: 833.0 mg/kg/injection, schedule: Q04DX003 (sc), vehicle: steriod suspending solution) was 122 % of control. For the same molecule, the T/C (dose: 1388.0 mg/kg/injection, schedule: Q01DX009 (sc), vehicle: other) was 111 % of control, the T/C (dose: 1388.0 mg/kg/injection, schedule: Q01DX009 (sc), vehicle: steriod suspending solution) was 110 % of control and the T/C (dose: 1388.0 mg/kg/injection, schedule: Q01DX015 (sc), vehicle: other) was 110 % of control. For the same molecule, the T/C (dose: 1388.0 mg/kg/injection, schedule: Q01DX015 (sc), vehicle: steriod suspending solution) was 110 % of control.
With `CN(N=O)C(=O)NC(C=O)C(O)C(O)C(O)CO` (centres undefined) the T/C (dose: 39.0 mg/kg/injection, schedule: Q01DX Z (sc), vehicle: saline) was 100 % of control, the T/C [4] was 112 % of control and the T/C [5] was 100 % of control. The T/C [6] was 112 % of control, the T/C (dose: 300.0 mg/kg/injection, schedule: Q01DX Z (sc), vehicle: saline) was 112 % of control and the T/C (dose: 500.0 mg/kg/injection, schedule: Q01DX Z (sc), vehicle: saline) was 100 % of control.
In the case of `CN(N=O)C(N)=O`, the T/C (dose: 0.75 mg/kg/injection, schedule: Q01DX009 (ip), vehicle: saline) is reported as 100 % of control, the T/C (dose: 1.5 mg/kg/injection, schedule: Q01DX009 (ip), vehicle: saline) is reported as 100 % of control and the T/C (dose: 3.0 mg/kg/injection, schedule: Q01DX009 (ip), vehicle: saline) is reported as 105 % of control. For the same molecule, the T/C (dose: 6.0 mg/kg/injection, schedule: Q01DX009 (ip), vehicle: saline) was 120 % of control, the T/C (dose: 14.0 mg/kg/injection, schedule: Q01DX Z (sc), vehicle: saline) was 111 % of control and the T/C (dose: 23.0 mg/kg/injection, schedule: Q01DX Z (sc), vehicle: saline) was 100 % of control and 111 % of control. For the same molecule, the T/C (dose: 31.1 mg/kg/injection, schedule: Q01DX Z (sc), vehicle: saline) was 122 % of control, the T/C [4] was 155 % of control and the T/C (dose: 86.4 mg/kg/injection, schedule: Q01DX Z (sc), vehicle: saline) was 118 % of control. The T/C [5] was 118 % of control and 120 % of control, the T/C (dose: 144.0 mg/kg/injection, schedule: Q01DX Z (sc), vehicle: saline) was 109 % of control and the T/C [6] was 100 % of control and 120 % of control.
In the case of `Nc1ccn(C2CC(O)C(CO)O2)c(=O)n1` (centres undefined), the T/C (dose: 37.5 mg/kg/injection, schedule: Q06HX018 (sc), vehicle: water) is reported as 108 % of control, the T/C (dose: 37.5 mg/kg/injection, schedule: Q## X018 (sc), vehicle: water) is reported as 111 % of control and the T/C (dose: 75.0 mg/kg/injection, schedule: Q03HX008 (sc), vehicle: water) is reported as 90 % of control and 93 % of control. For the same molecule, the T/C (dose: 75.0 mg/kg/injection, schedule: Q06HX018 (sc), vehicle: water) was 102 % of control, the T/C (dose: 75.0 mg/kg/injection, schedule: Q## X018 (sc), vehicle: water) was 100 % of control and the T/C (dose: 150.0 mg/kg/injection, schedule: Q03HX008 (sc), vehicle: water) was 100 % of control and 102 % of control. The T/C (dose: 150.0 mg/kg/injection, schedule: Q06HX018 (sc), vehicle: water) was 98 % of control, the T/C (dose: 150.0 mg/kg/injection, schedule: Q## X018 (sc), vehicle: water) was 100 % of control and the T/C (dose: 300.0 mg/kg/injection, schedule: Q06HX018 (sc), vehicle: water) was 106 % of control. For the same molecule, the T/C (dose: 300.0 mg/kg/injection, schedule: Q## X018 (sc), vehicle: water) was 105 % of control.
With `CN(C)[C@@H]1C(=O)C(C(=O)NCc2nc3[nH]cnc(=S)c3[nH]2)=C(O)[C@@]2(O)C(=O)C3=C(O)c4c(O)cccc4[C@@](C)(O)[C@H]3C[C@@H]12` the T/C (dose: 65.0 mg/kg/injection, schedule: Q01DX Z (sc), vehicle: methylcellulose (MC)) was 100 % of control, the T/C [1] was 100 % of control and the T/C [2] was 100 % of control. For the same molecule, the T/C [3] was 105 % of control and the T/C (dose: 500.0 mg/kg/injection, schedule: Q01DX Z (sc), vehicle: methylcellulose (MC)) was 175 % of control.
